Laboratory results: patent US6448283B1, “Methods for preventing/treating damage to sensory hair cells and cochlear neurons” (Cephalon, Inc., priority 1998, dated 2002)
Entries after “also recorded” stand apart in the source; their conditions may differ.

How the values were obtained:
[1] = system: outer hair cells in organotypic cultures of the neonatal organ of Corti; test: Hair cell counts in neomycin-exposed cochlear explant cultures; assay type: cell-based, rat
Procedure: (§1) The basal half of cochleas containing the basal and middle turns were dissected from postnatal day 2 Wistar rats. The cultures were maintained on Nuclepore filters (pore size […]; Pleasanton, Calif.) placed on a metal grid in F12 medium (Life Technologies, Gaithersburg, Md.) containing 15% fetal bovine serum (Life Technologies). After a 2-hour-long stabilization period, explants were exposed to 100 mM neomycin sulfate (Sigma, St Louis, Mo.) for 48 hr.
(§2) Explants were fixed with 4% paraformaldehyde/0.5% glutaraldehyde in phosphate buffered saline (PBS), pH 7.4, for 30 min and dissected for surface preparations. They were stained with a 1:100 dilution of rhodamine-phalloidin in PBS containing 0.25% Triton X-l 00 overnight at 4° C. and mounted in Vectashield (Vector). Outer hair cell (OHC) numbers were quantified with a Zeiss Axiovert 100/135 epifluorescent microscope (Germany) connected to a Bio-Rad MRC-1024 confocal laser scanning system (Richmond, Calif.). Hair cells were characterized as missing if no stereocilia and cuticular plate were observed. Numbers of OHCs were evaluated using a 40×objective lens and an ocular grid. Nine to 1 fields filled by 30 OHCs in each of the 3 rows (when all of them were present) were studied from each explant. Basal and middle coils were analyzed separately. Three separate experiments, each including 4 explants of both conditions (neomycin and neomycin plus Formula II) were analyzed.
as §1, with “μM” for “mM”, “hr. The compounds of Formula I and the compound of Formula I were added at 500 nM at the time of initiation of the cultures and every 12 hr thereafter. Neomycin plus vehicle was used as a control.” for “hr.”
as §2, with “X-100” for “X-l 00”, “40x objective” for “40×objective”, “Several” for “Nine to 1”, “separately.” for “separately. Three separate experiments, each including 4 explants of both conditions (neomycin and neomycin plus Formula II) were analyzed.”

[2] = system: noise-exposed guinea pigs; test: ABR threshold shifts after noise exposure (Example 2); assay type: in vivo, guinea pig; conditions: day 6 postexposure; n=11; P<0.05 at 4 and 8 kHz, P<0.01 at 16 kHz
Procedure: Adult Dunkin-Hartley female guinea pigs (weight 300-500 g) were exposed, 4 animals at a time, to octave band noise, with a center frequency of 4.0 kHz, 120 dB SPL for 6 hr as described in Example 1. Fragmented hair cell nuclei were assessed from noise-exposed cochleas immediately and 1, 2, 4, 6, 8 and 14 days after noise exposure. Noise-exposed and nonexposed guinea pigs were decapitated under deep anesthesia and inner ears were perilymphatically perfused with 4% paraformaldehyde in PBS, and processed for […] paraffin-embedded sections (Ylikoski et al., Hear Res 65:69-78, 1993; Ylikoski et al., Hear Res 124:17-26, 1998). TUNEL-staining was performed as described below. DNA fragmentation was also verified by DAPI nuclear counterstain (see below). Further, trauma-induced nuclear fragmentation was verified by morphological analysis of contralateral cochleas that were perilymphatically fixed with 2.5% glutaraldehyde in 0.1M phosphate buffer, pH 7.4, postfixed with 1% osmium tetroxide, embedded in epoxy resin, and prepared for surface preparations (see below). […]
Auditory brainstem responses (ABRs) were measured 2 days before noise exposure, and 2, 6 and 14 days after exposure under anesthesia (xylazine 10 mg/kg and ketamine 40 mg/kg). […] Hearing threshold was determined from a set of responses at varying intensities. […]

[3] = system: cochlear ganglion neurons; test: Survival of dissociated cochlear neurons in culture; assay type: cell-based; conditions: E21 rat cochlear ganglia; Formula II 500 nM; NT-3 2 ng/ml in parallel cultures; 48 hr
Procedure: Neuronal enriched cultures from embryonic day 21 (E21) rat cochlear ganglia were prepared as previously described (Ylikoski et al., Hear. Res., 1998, 124:17-26). The cultures were maintained in F14 medium (Life Technologies, Gaithesburg, Md.) containing 10% horse serum (Life Technologies). […] After 48 hr, cultures were fixed with 4% paraformaldehyde and responses were assessed under a phase contrast microscope. Surviving neurons were distinguished by a phase-bright cell body and definite neurites.

What does the source list for `CCSCc1ccc2c(c1)c1c3c(c4c5cc(CSCC)ccc5n5c4c1n2C1C[C@](O)(C(=O)OC)[C@]5(C)O1)CNC3=O` [Formula II]?
OHCs in the basal turn preserved ([1]; 500 nM Formula II co-incubated with neomycin for 48 hr, n=12): Approximately 90%; neomycin-induced sensory hair cell loss/degeneration ([1]; 500 nM compound together with neomycin, 48 hr, in words): reduced; also recorded: prevented hair cell loss; viability at 0.5 µM ([1]; Rattus norvegicus, 48 h, compound 500 nM plus 100 μM neomycin 48 hr, NEO = neomycin plus vehicle, each line a separate count, read-out: % preserved): 92%; ABR threshold shifts versus noise-exposed control group [2]: significantly less; survival of cochlear neurons [3]: as efficacious as NT-3
